According to publication PMC6315388, “Azasulfurylpeptide Modulation of CD36-Mediated Inflammation Without Effect on Neovascularization” (Biomedicines, 2018):
Read-outs that look alike come from different tables or passages of the source. Marks after values point to notes of the source that are not given here. Starred links: 1 amine or outer side, 2 acyl side, 3 side chain; linkers in the order of their positions; H or OH if unused. Non-standard residues stand in square brackets, D forms with d. Residues, ends and D or L forms follow the SMILES beside them. aza(4-F)Phe = aza-4-fluorophenylalanine (alpha-carbon replaced by nitrogen, para-fluoro), O=C(N(Cc1ccc(F)cc1)N[*:1])[*:2]; X1 = O=C([C@@H](Cc1ccccc1)NS(=O)(=O)N(Cc1ccc(F)cc1)N[*:1])[*:2]; azaTyr = O=C(N(Cc1ccc(O)cc1)N[*:1])[*:2]

How the values were obtained:
[1] = target: T1, CD36 (Rattus norvegicus, UniProt Q07969); experiment: Competition with [125I]-Tyr-Bpa-Ala-hexarelin tracer for CD36 binding on purified rat heart membranes; conditions: purified membranes from rat heart, read-out: CD36 binding affinity IC50
T1 construct: purified membranes from rat heart as a source of CD36; from tissue; host or cells: rat heart (purified membranes)
Method: The ability of [(4-F)AsF^4]-GHRP-6 (3c) to compete with the radiolabeled [^125I]-Tyr-Bpa-Ala-hexarelin used as tracer for CD36 binding was tested on purified membranes from rat heart as a source of CD36 [36].

[2] = target: T1, CD36; conditions: read-out: CD36 binding affinity IC50; cited from earlier work
[3] = test system: TNFα secretion in peritoneal macrophages; experiment: TNFα secretion by peritoneal macrophages stimulated with R-FSL-1 (ELISA); assay type: cell-based, C57BL/6 mice; conditions: 1 µM peptide, 2 h pretreatment, R-FSL-1 300 ng/mL, NA: no activity
Method: (§1) Peritoneal macrophage cells from C57BL/6 mice were harvested from sterile DMEM cell-culture medium (Wisent # 319-005-CL), allowed to adhere for 1 h at 37 °C in a 5% CO2 atmosphere, and washed twice with PBS to remove non-adherent cells. Macrophages (0.5 × 10^6 cells/well) were plated in 48 well-culture plates with DMEM containing 0.2% of bovine serum albumin (BSA), pretreated for 2 h with azasulfurylpeptides 3b–e or [azaK^6]-GHRP-6 (1 µM), before stimulation with a TLR2 ligand: R-FSL-1 (Invivogen® #L7022) at 300 ng/mL interferon gamma (IFNγ R&D Systems® Minneapolis, MN, USA # 172-5201) at 20 ng/mL for 4 or 24 h. The supernatants were recovered, and ELISA (eBioscience® #88-7324; 88-7391) was performed to determine the levels of proinflammatory cytokine and chemokine (TNFα, MCP-1). The effect on NF-κB activation was documented on cell lysates after 0, 5, 10, 15 and 30 min stimulation with R-FSL1, using NF-κB p65/RelA specific ELISA-based assay (eBioscience® #85-86083). The results were expressed as mean ± SEM and analyzed statistically by a one-way analysis of variance (ANOVA) with a Dunnett as a post-test. Level of significance was set at P < 0.05.

[4] = test system: NO overproduction in J774 macrophage cell line elicited by TLR-2 agonist (R-FSL-1); experiment: Modulation of TLR2 agonist (R-FSL-1)-induced overproduction of nitric oxide in J774 macrophage cell line (nitrite, DAN fluorescence); assay type: cell-based, murine; conditions: J774 macrophages; for NO inhibition Fold of 1: 2 h pre-incubation, overnight stimulation with 300 ng/mL R-FSL-1; for Inhibitory effect on R-FSL-elicited NO production (in words): R-FSL-1
Method: The murine J774A.1 macrophage cell lines were obtained from American Type Cell Collection (ATCC #TIB-67), seeded at 1.5 × 10^5 cells/well in Dulbecco’s modified eagle media (DMEM) containing 100U/mL of penicillin (Pen) and 100 μg/mL of streptomycin (Strep) on a 48-well plate (Costar® #3548), and incubated at 37 °C with 5% CO2. After 2 h, the medium of adhered cells was changed to DMEM-Pen/Strep containing 0.2% of bovine serum albumin (BSA), and supplemented with either azasulfurylpeptide 3a–f or [azaK^6]-GHRP-6 as a negative control. After 2 h of pre-incubation, the cells were stimulated overnight with 300 ng/mL of R-FSL-1. Supernatants were collected for fluorescence determination of nitrite using 2,3-diaminonaphtalene (DAN). Briefly, 25 μL of sample was incubated with 0.5 μg of DAN in a 100 μL final volume of phosphate buffer (50 mM, pH 7.5) at rt in the dark. After 15 min, the reaction was stopped with 20 µL of NaOH (2.8N) and the plate was read using a fluorescence plate reader (TECAN® Safire, λexc 365 nm and λem 430 nm).

[5] = test system: mouse choroidal explants (RPE/choroid/sclera complex); experiment: Microvascular sprouting on choroid explant as index of angiogenesis; assay type: cell-based; conditions: 10^−6 M, 24 h, Matrigel-embedded mouse choroidal explants, n = 3–4
Method: Choroidal explants were set as described previously. Briefly, enucleated mice eyes with and without treatment with aza- and azasulfurylpeptides 1, 2 and 3c or [azaK^6]-GHRP-6 were collected and dissected to obtain the complex consisting of the RPE/choroid/sclera, which was cut in 16 explant fragments and cultured in 20 µL of Matrigel (BD biosciences, San Jose, CA, USA) in 24-wells plates (Sarstedt Inc., St. Leonard, QC, Canada). […] Phototographs of explants were taken under microscopy (T0 and T24 h). The explants were washed with endothelial basal medium (EBM) and incubated in EBM with NaCl or CD36 ligands at 10^−6 M for 24 h. The sprouting surface was assessed by image analysis using imagen J software. Ratios (sprouting surface at T24 h, sprouting surface at T0)/sprouting surface at T0 were determined. Numerical results were expressed as mean ± SEM. Data were compared using one-way ANOVA with Dunnett’s post-test. P < 0.05 was considered statistically significant (Prism software version 5.01; graphpad Software, San Diego, CA, USA).

[6] = test system: subretinal IBA-1 positive cells (activated microglia/macrophages); experiment: Blue-light illumination model of retinal inflammation: IBA-1-positive cells in the subretinal space; assay type: in vivo; conditions: ApoE−/− mice, 1000 lux blue light 5 d, 289 nmol/kg s.c. for 7 consecutive days, vs illuminated vehicle-treated mice, n = 3–5
Method: Apo E deficient (ApoE^−/−) mice were obtained from The Jackson Laboratory (Bar Harbor, ME, USA). Animals were housed under 12 h light/dark cycles and fed ad libitum with a standard rodent diet. All experimental procedures were done in accordance with the Animal Ethics Committee at Université de Montreal (CDEA, project 12-012 approved on 26 January 2013) and the Canadian Council on Animal Care guidelines for use of experimental animals.
Three to four-month-old ApoE^−/− mice were exposed to blue LED-light (Yescom USA, Inc., City Of Industry, CA, USA) for 5 d at 1000 lux illumination without previous dark-adaptation. For pupil dilatation, ophthalmic atropine solution 1% (Alcon, Fort Worth, TX, USA) was applied to both eyes daily. Aza- and azasulfurylpeptides 1, 2 and 3c or [azaK^6]-GHRP-6 (289 nmol/kg) were administered subcutaneously at 24 h following blue-light exposure for 7 consecutive days. At the end of the blue-light exposure period, the mice were maintained on a 12:12 h light: dark cycle for 3 days, before being sacrificed. Enucleated eyes were fixed in 4% paraformaldehyde (PFA) for 15 min at rt and sectioned at the limbus; the anterior segments were discarded. The posterior eye cups consisting of retinal pigment epithelium (RPE)/choroid/sclera complex were collected and prepared for immunofluorescence analysis.
RPE/choroid/sclera flat-mounts were treated with PBS solution containing 0.1% Triton 100× and 10% fetal bovine serum (FBS) or 5% BSA (saturation buffer) for 45 min. Specimens were incubated overnight at 4 °C with primary antibodies diluted in saturation buffer. Immunofluorescence was performed using polyclonal rabbit anti-IBA-1 as marker of activated cells. […] Flatmounts were analyzed using an IX81 Olympus fluorescence microscope (Richmond Hill, ON, Canada). […]
IBA-1–stained cells were counted on flatmounts from control and illuminated mice injected daily with 0.9% NaCl or with aza- and azasulfurylpeptides 1, 2 and 3c or [azaK^6]-GHRP-6 (289 nmol/kg). Cell numbers were expressed as the mean number of IBA-1–positive cells in subretinal space. […]

[7] = test system: MCP-1 secretion in peritoneal macrophages; experiment: MCP-1 secretion by peritoneal macrophages stimulated with R-FSL-1 (ELISA); assay type: cell-based, C57BL/6 mice; conditions: 1 µM peptide, 2 h pretreatment, R-FSL-1 300 ng/mL, NA: no activity
Method: as §1

T1 sequence (Q07969 whole entry): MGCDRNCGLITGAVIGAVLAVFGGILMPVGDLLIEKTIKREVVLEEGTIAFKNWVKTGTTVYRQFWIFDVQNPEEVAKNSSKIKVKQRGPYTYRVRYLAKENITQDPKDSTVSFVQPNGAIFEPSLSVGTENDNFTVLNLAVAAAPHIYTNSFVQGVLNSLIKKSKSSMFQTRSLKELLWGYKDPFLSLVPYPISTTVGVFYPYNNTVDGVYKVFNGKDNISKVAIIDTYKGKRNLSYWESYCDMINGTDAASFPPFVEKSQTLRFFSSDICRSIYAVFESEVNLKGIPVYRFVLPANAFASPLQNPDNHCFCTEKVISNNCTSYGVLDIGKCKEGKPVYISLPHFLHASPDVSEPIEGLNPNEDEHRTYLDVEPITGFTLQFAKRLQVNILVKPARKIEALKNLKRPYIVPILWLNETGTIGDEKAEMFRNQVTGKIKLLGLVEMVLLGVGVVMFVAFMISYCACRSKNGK

C[C@H](NC(=O)[C@@H](Cc1c[nH]c2ccccc12)NC(=O)[C@@H](N)Cc1c[nH]cn1)C(=O)NN(Cc1ccc(F)cc1)S(=O)(=O)N[C@H](Cc1ccccc1)C(=O)N[C@@H](CCCCN)C(N)=O [3c, H-His-D-Trp-Ala-(4-F)AsF-D-Phe-Lys-NH2] (H-H[dW]A[X1]K-NH2)
IC50 [1]: 2.53 µM

His-D-Trp-Ala-aza(4-F)Phe-D-Phe-Lys-NH2 (H-H[dW]A[aza(4-F)Phe][dF]K-NH2; SMILES C[C@H](NC(=O)[C@@H](Cc1c[nH]c2ccccc12)NC(=O)[C@@H](N)Cc1c[nH]cn1)C(=O)NN(Cc1ccc(F)cc1)C(=O)N[C@H](Cc1ccccc1)C(=O)N[C@@H](CCCCN)C(N)=O) [compound 2, semicarbazide analog of GHRP-6, CD36 ligand]
IC50 [2]: 6.06 µM

H-His-D-Trp-Ala-(4-MeO)AsF-D-Phe-Lys-NH2 [3d]
TNFα inhibition Fold of 1 [3]: 1.5 Fold of 1
NO inhibition Fold of 1 [4]: 1.5 Fold of 1

H-His-D-Trp-Ala-AsNal-D-Phe-Lys-NH2 [3e]
NO inhibition Fold of 1 [4]: 0.06 Fold of 1
Inhibitory effect on R-FSL-elicited NO production (in words) [4]: limited inhibitory effect

H-Ala-D-Trp-Ala-AsF(4-F)-D-Phe-Lys-NH2 [3f]
NO inhibition Fold of 1 [4]: -0.04 Fold of 1
Inhibitory effect on R-FSL-elicited NO production (in words) [4]: limited inhibitory effect

His-D-Trp-Ala-azaTyr-D-Phe-Lys-NH2 [compound 1, semicarbazide analog of GHRP-6, CD36 ligand]
Effect on choroidal microvascular sprouting (in words) [5]: inhibited microvascular sprouting
TNFα inhibition Fold of 1 [3]: 1 ^b Fold of 1
NO inhibition Fold of 1 [4]: 1 ^a Fold of 1
Decrease of IBA-1+ cell accumulation in the subretina [6]: 50%
MCP-1 inhibition Fold of 1 [7]: 1 ^c Fold of 1

H-His-D-Trp-Ala-AsF-D-Phe-Lys-NH2 [3a]
NO inhibition Fold of 1 [4]: 1.6 Fold of 1
Inhibitory effect on R-FSL-elicited NO production (in words) [4]: reduced significantly NO production
Decrease of IBA-1+ cell accumulation in the subretina [6]: 50%

H-His-D-Trp-Ala-AsF(4-HO)-D-Phe-Lys-NH2 [3b]
NO inhibition Fold of 1 [4]: 0.2 Fold of 1

His-D-Trp-Ala-azaTyr-D-Phe-Lys-NH2 (H-H[dW]A[azaTyr][dF]K-NH2; SMILES C[C@H](NC(=O)[C@@H](Cc1c[nH]c2ccccc12)NC(=O)[C@@H](N)Cc1c[nH]cn1)C(=O)NN(Cc1ccc(O)cc1)C(=O)N[C@H](Cc1ccccc1)C(=O)N[C@@H](CCCCN)C(N)=O) [compound 1, semicarbazide analog of GHRP-6, CD36 ligand]
IC50 [2]: 1.9 µM

His-D-Trp-Ala-aza(4-F)Phe-D-Phe-Lys-NH2 [compound 2, semicarbazide analog of GHRP-6, CD36 ligand]
Effect on choroidal microvascular sprouting (in words) [5]: inhibited microvascular sprouting
TNFα inhibition Fold of 1 [3]: 0.87 Fold of 1
NO inhibition Fold of 1 [4]: 1.4 Fold of 1
Decrease of IBA-1+ cell accumulation in the subretina [6]: 50%
MCP-1 inhibition Fold of 1 [7]: 0.97 Fold of 1
